Where two headings read alike, the source gives them in different places.
Experiment: Mouse blood and tissue PK (LC/MS-MS)
Assay type: in vivo
Details: for AUC(0-t): read-out: Blood AUClast
Procedure: For single-dose PKPD study, mice were randomized and assigned into groups (n = 3/dose/time point). […] Blood and tissues, including the tumor, brain, colon, ear skin, and muscle, were harvested at indicated time points. […] The whole blood, tumor, brain, colon, and ear skin concentrations of RMC-6236 were determined using liquid chromatography–tandem mass spectrometry (LC/MS-MS) methods. […] After thorough mixing and centrifugation, the supernatant was diluted with water or directly analyzed on a Sciex 5500 or Sciex 6500+ triple quadrupole mass spectrometer equipped with an ACQUITY or Shimadzu UPLC system. […] Bioanalysis on blood and tissue samples from xenograft models was run at Pharmaron and Wuxi AppTec. Concentrations reported as below the quantification limit were treated as zero for PK analysis. PK parameters were calculated by noncompartmental analysis of the concentration–time profiles using Phoenix WinNonLin (version 8.3 Certara). Apparent terminal elimination half-life (t1/2) values were calculated as ln(2)/k, where k represents the terminal elimination rate constant. Area under the concentration–time curve (AUC) values were estimated using a linear trapezoidal method. AUClast values were calculated from the dosing time to the last quantifiable concentration. Maximum concentration (Cmax) was recorded as observed.

[1] = mouse, whole blood, oral, 10 mg/kg, Model Validation Dataset, 10mg/kg_study6, read-out: Blood Concentration
[2] = mouse, whole blood, oral, 25 mg/kg, Model Development Dataset, 25mg/kg_study8, read-out: Blood Concentration
[3] = mouse, whole blood, oral, 25 mg/kg, Model Development Dataset, 25mg/kg_study8r (doses every 24 h, 0-[…])
[4] = mouse, whole blood, oral, 25 mg/kg, Model Validation Dataset, 25mg/kg_study6, read-out: Blood Concentration
[5] = mouse, whole blood, oral, 40 mg/kg, Model Development Dataset, 40mg/kg_study8, read-out: Blood Concentration
[6] = mouse, whole blood, oral, 40 mg/kg, Model Development Dataset, 40mg/kg_study8r (doses every 24 h, 0-[…])
[7] = mouse, whole blood, oral, 50 mg/kg, Model Validation Dataset, 50mg/kg_study6, read-out: Blood Concentration
[8] = mouse, whole blood, po, 1 mg/kg, NCI-H441 #1 (1 mg/kg), QD x 28 days
[9] = mouse, whole blood, po, 3 mg/kg, NCI-H441 (3 mg/kg), single dose
[10] = mouse, whole blood, po, 5 mg/kg, NCI-H441 #1 (5 mg/kg), QD x 28 days
[11] = mouse, whole blood, po, 10 mg/kg, NCI-H441 #1 (10 mg/kg), QD x 28 days
[12] = mouse, whole blood, po, 10 mg/kg, NCI-H441 (10 mg/kg), single dose
[13] = mouse, whole blood, po, 25 mg/kg, HPAC (25 mg/kg), single dose
[14] = mouse, whole blood, po, 25 mg/kg, KP-4 (25 mg/kg), single dose
[15] = mouse, whole blood, po, 25 mg/kg, NCI-H358 (25 mg/kg), single dose
[16] = mouse, whole blood, po, 25 mg/kg, NCI-H441 #1 (25 mg/kg), QD x 28 days
[17] = mouse, whole blood, po, 25 mg/kg, NCI-H441 #2 (25 mg/kg), QD x 10 days
[18] = mouse, whole blood, po, 25 mg/kg, NCI-H441 (25 mg/kg), single dose
[19] = mouse, whole blood, po, 25 mg/kg, NCI-H2122 (25 mg/kg), single dose

CCn1c(-c2cc(N3CCN(C)CC3)cnc2[C@H](C)OC)c2c3cc(ccc31)-c1csc(n1)C[C@H](NC(=O)[C@H]1C[C@@H]1C)C(=O)N1CCC[C@H](N1)C(=O)OCC(C)(C)C2 [RMC-6236]
concentration at 24 h (mouse, tumor, oral, 50 mg/kg, Model Validation Dataset, 50mg/kg_study6, 24 h, read-out: Tumor Concentration): 2100 nM
concentration at 48 h (mouse, tumor, oral, 50 mg/kg, Model Validation Dataset, 50mg/kg_study6, 48 h, read-out: Tumor Concentration): 1240 nM
concentration at 72 h (mouse, tumor, oral, 50 mg/kg, Model Validation Dataset, 50mg/kg_study6, 72 h): 621 nM
concentration at 8 h (mouse, tumor, oral, 50 mg/kg, NCI-H441 xenograft tumor, study NCI-H441#6, 50 mg/kg, 8h, read-out: RMC-6236 (nM) Tumor): 4770 nM
concentration at 24 h (mouse, tumor, oral, 50 mg/kg, NCI-H441 xenograft tumor, study NCI-H441#6, 50 mg/kg, 24h, read-out: RMC-6236 (nM) Tumor): 1960 nM
concentration at 8 h (mouse, tumor, oral, 100 mg/kg, KP-4, study KP-4 #4, 100 mg/kg, 8h, read-out: RMC-6236 (nM) Tumor): 10200 nM
concentration at 24 h (mouse, tumor, oral, 100 mg/kg, KP-4, study KP-4 #4, 100 mg/kg, 24h, read-out: RMC-6236 (nM) Tumor): 7000 nM
concentration at 24 h (mouse, tumor, oral, 100 mg/kg, NCI-H441 xenograft tumor, study NCI-H441#6, 100 mg/kg, 24h, read-out: RMC-6236 (nM) Tumor): 3020 nM
concentration at 48 h (mouse, tumor, oral, 100 mg/kg, NCI-H441 xenograft tumor, study NCI-H441#6, 100 mg/kg, 48h, read-out: RMC-6236 (nM) Tumor): 2060 nM
half-life (mouse, tumor, po, 3 mg/kg, NCI-H441 (3 mg/kg), single dose, read-out: Tumor t1/2 (converted)): 1030 min
half-life (mouse, tumor, po, 25 mg/kg, HPAC (25 mg/kg), single dose, read-out: Tumor t1/2 (converted)): 840 min
half-life (mouse, tumor, po, 25 mg/kg, KP-4 (25 mg/kg), single dose, read-out: Tumor t1/2 (converted)): 678 min
half-life (mouse, tumor, po, 25 mg/kg, NCI-H358 (25 mg/kg), single dose, read-out: Tumor t1/2 (converted)): 612 min
half-life (mouse, tumor, po, 25 mg/kg, NCI-H441 (25 mg/kg), single dose, read-out: Tumor t1/2 (converted)): 2770 min
concentration at 0.5 h (mouse, whole blood, oral, 10 mg/kg, Model Validation Dataset, 10mg/kg_study6): 435 nM
concentration at 1 h [1]: 642 nM
concentration at 2 h [1]: 642 nM
concentration at 4 h [1]: 441 nM
concentration at 8 h (mouse, whole blood, oral, 10 mg/kg, Model Validation Dataset, 10mg/kg_study6, 8 h, read-out: Blood Concentration): 309 nM
concentration at 24 h (mouse, whole blood, oral, 10 mg/kg, Model Validation Dataset, 10mg/kg_study6, 24 h, read-out: Blood Concentration): 3.91 nM
Cmax (mouse, whole blood, oral, 10 mg/kg, Naïve Mice #1 (10 mg/kg), single dose): 744 ng/mL
concentration at 0.5 h (mouse, whole blood, oral, 25 mg/kg, Model Development Dataset, 25mg/kg_study8): 806 nM
concentration at 1 h [2]: 979 nM
concentration at 2 h [2]: 1410 nM
concentration at 4 h [2]: 1430 nM
concentration at 8 h (mouse, whole blood, oral, 25 mg/kg, Model Development Dataset, 25mg/kg_study8, 8 h, read-out: Blood Concentration): 802 nM
concentration at 24 h (mouse, whole blood, oral, 25 mg/kg, Model Development Dataset, 25mg/kg_study8, 24 h, read-out: Blood Concentration): 7.71 nM
concentration at 216.5 h [3]: 1180 nM
concentration at 220 h [3]: 849 nM
concentration at 240 h (mouse, whole blood, oral, 25 mg/kg, Model Development Dataset, 25mg/kg_study8r (doses every 24 h, 0-[…]), read-out: Blood Concentration): 5.4 nM
concentration at 0.5 h (mouse, whole blood, oral, 25 mg/kg, Model Validation Dataset, 25mg/kg_study6): 598 nM
concentration at 1 h [4]: 885 nM
concentration at 2 h [4]: 1540 nM
concentration at 4 h [4]: 1140 nM
concentration at 8 h (mouse, whole blood, oral, 25 mg/kg, Model Validation Dataset, 25mg/kg_study6, 8 h, read-out: Blood Concentration): 755 nM
concentration at 24 h (mouse, whole blood, oral, 25 mg/kg, Model Validation Dataset, 25mg/kg_study6, 24 h, read-out: Blood Concentration): 15.6 nM
concentration at 0.5 h (mouse, whole blood, oral, 40 mg/kg, Model Development Dataset, 40mg/kg_study8): 1320 nM
concentration at 1 h [5]: 1580 nM
concentration at 2 h [5]: 2770 nM
concentration at 4 h [5]: 1480 nM
concentration at 8 h (mouse, whole blood, oral, 40 mg/kg, Model Development Dataset, 40mg/kg_study8, 8 h, read-out: Blood Concentration): 1200 nM
concentration at 24 h (mouse, whole blood, oral, 40 mg/kg, Model Development Dataset, 40mg/kg_study8, 24 h, read-out: Blood Concentration): 8 nM
concentration at 216.5 h [6]: 1760 nM
concentration at 220 h [6]: 1550 nM
concentration at 240 h (mouse, whole blood, oral, 40 mg/kg, Model Development Dataset, 40mg/kg_study8r (doses every 24 h, 0-[…]), read-out: Blood Concentration): 7.54 nM
concentration at 0.5 h (mouse, whole blood, oral, 50 mg/kg, Model Validation Dataset, 50mg/kg_study6): 1420 nM
concentration at 1 h [7]: 1820 nM
concentration at 2 h [7]: 2770 nM
concentration at 4 h [7]: 1980 nM
concentration at 8 h (mouse, whole blood, oral, 50 mg/kg, Model Validation Dataset, 50mg/kg_study6, 8 h, read-out: Blood Concentration): 1350 nM
concentration at 24 h (mouse, whole blood, oral, 50 mg/kg, Model Validation Dataset, 50mg/kg_study6, 24 h, read-out: Blood Concentration): 22.4 nM
concentration at 48 h (mouse, whole blood, oral, 50 mg/kg, Model Validation Dataset, 50mg/kg_study6, 48 h, read-out: Blood Concentration): 2.76 nM
Cmax (mouse, whole blood, oral, 50 mg/kg, Naïve Mice #1 (50 mg/kg), single dose): 2960 ng/mL
Cmax [8]: 79.2 ng/mL
AUC(0-t) [8]: 384 ng·h/mL
half-life (mouse, whole blood, po, 1 mg/kg, NCI-H441 #1 (1 mg/kg), QD x 28 days, read-out: Blood t1/2 (converted)): 174 min
Cmax [9]: 219 ng/mL
AUC(0-t) [9]: 1180 ng·h/mL
Cmax [10]: 286 ng/mL
AUC(0-t) [10]: 1330 ng·h/mL
half-life (mouse, whole blood, po, 5 mg/kg, NCI-H441 #1 (5 mg/kg), QD x 28 days, read-out: Blood t1/2 (converted)): 245 min
Cmax [11]: 533 ng/mL
AUC(0-t) [11]: 2780 ng·h/mL
half-life (mouse, whole blood, po, 10 mg/kg, NCI-H441 #1 (10 mg/kg), QD x 28 days, read-out: Blood t1/2 (converted)): 193 min
Cmax [12]: 520 ng/mL
AUC(0-t) [12]: 3810 ng·h/mL
half-life (mouse, whole blood, po, 10 mg/kg, NCI-H441 (10 mg/kg), single dose, read-out: Blood t1/2 (converted)): 176 min
Cmax [13]: 1310 ng/mL
AUC(0-t) [13]: 12000 ng·h/mL
half-life (mouse, whole blood, po, 25 mg/kg, HPAC (25 mg/kg), single dose, read-out: Blood t1/2 (converted)): 157 min
Cmax [14]: 1460 ng/mL
AUC(0-t) [14]: 12500 ng·h/mL
half-life (mouse, whole blood, po, 25 mg/kg, KP-4 (25 mg/kg), single dose, read-out: Blood t1/2 (converted)): 157 min
Cmax [15]: 1150 ng/mL
AUC(0-t) [15]: 8720 ng·h/mL
half-life (mouse, whole blood, po, 25 mg/kg, NCI-H358 (25 mg/kg), single dose, read-out: Blood t1/2 (converted)): 167 min
Cmax [16]: 1250 ng/mL
AUC(0-t) [16]: 6950 ng·h/mL
half-life (mouse, whole blood, po, 25 mg/kg, NCI-H441 #1 (25 mg/kg), QD x 28 days, read-out: Blood t1/2 (converted)): 208 min
Cmax [17]: 1080 ng/mL
AUC(0-t) [17]: 6660 ng·h/mL
half-life (mouse, whole blood, po, 25 mg/kg, NCI-H441 #2 (25 mg/kg), QD x 10 days, read-out: Blood t1/2 (converted)): 160 min
Cmax [18]: 1250 ng/mL
AUC(0-t) [18]: 9060 ng·h/mL
half-life (mouse, whole blood, po, 25 mg/kg, NCI-H441 (25 mg/kg), single dose, read-out: Blood t1/2 (converted)): 187 min
Cmax [19]: 1110 ng/mL
AUC(0-t) [19]: 7930 ng·h/mL
half-life (mouse, whole blood, po, 25 mg/kg, NCI-H2122 (25 mg/kg), single dose, read-out: Blood t1/2 (converted)): 270 min
RMC-6236 (nM) Tumor (sheet Ear Skin, model Capan-2, study Capan-2 #3_PHA 2023, 3 mg/kg, 48h): BQL
RMC-6236 (nM) Tumor (sheet colon, Capan-2, Capan-2 #3_PHA 2023, 3 mg/kg, 24h): BQL
RMC-6236 (nM) Tumor (sheet colon, Capan-2, Capan-2 #3_PHA 2023, 3 mg/kg, 48h): BQL
RMC-6236 (nM) Tumor (sheet colon, Capan-2, Capan-2 #3_PHA 2023, 10 mg/kg, 48h): BQL
RMC-6236 (nM) Tumor (sheet colon, Capan-2, Capan-2 #3_PHA 2023, 25 mg/kg, 48h): BQL
RMC-6236 (nM) Tumor (sheet colon, Capan-2, Capan-2 #3_PHA 2023, 50 mg/kg, 48h): BQL
RMC-6236 (nM) Tumor (sheet colon, Capan-2, Capan-2 #3_PHA 2023, 100 mg/kg, 48h): BQL
RMC-6236 (nM) Tumor (sheet colon, KP-4, KP-4 #5, 25 mg/kg, 48h): BQL

— paper PMC11149917, “Translational and Therapeutic Evaluation of RAS-GTP Inhibition by RMC-6236 in RAS-Driven Cancers” (Cancer Discovery, 2024)
